# In US20170008888A1 (KYORIN PHARMACEUTICAL CO., LTD., priority 2014, published 2017):
# Assays:
# [1] = tested on: DNFB-induced ear inflammation mouse model; assay: DNFB-induced ear inflammation mouse model: cytokine concentrations in ear tissue; assay type: in vivo, mouse (Balb/c)
# Protocol: In vivo T-cell mediated immune response was examined in a mouse model of CHS using the hapten dinitrofluorobenzene (DNFB) as the induction agent. […] On Days 0 and 1 (sensitization), 20 μL of 0.5% v/v DNFB in acetone:olive oil (4:1) was applied to each hindpaw of 8 week old male mice (Balb/c, Charles River Laboratories; 10 mice per group unless otherwise noted). On Day 5 (elicitation) 10 μL of 0.2% v/v DNFB in acetone: olive oil (4:1) was applied to the dorsal surface of the right ear of each animal; 10 μL of acetone: olive oil (4:1) was applied to the dorsal surface of the left ear as control. Treatments were administered by group as indicated in the table below; on days when DNFB was used, the QD and the morning dose of BID as appropriate were administered 30 minutes-1 hr. prior to DNFB application. […] Approximately 24 hours after elicitation (Day 6), a 7 mm tissue punch from the central portion of both ears was collected and wet weights measured. The primary functional assessment was the difference in wet weights of the right (DNFB) vs. left (vehicle) ears compared to the vehicle treatment (Vehicle1-S) as an indicator of inflammation (Table 17). Ear tissue punches were flash frozen, stored at −70° C. and analyzed for cytokines (see below).
# Cytokine concentrations after DNFB induction and treatment were analyzed in the weighed and flash frozen tissues of the right (DNFB) and left (control) 7 mm ear punches. The ear tissues were stored at −70° C. until prepared for analysis as follows. Left or right ear tissues from the same treatment group were pooled and crushed with mortar and pestle under liquid nitrogen. Tissue representing 7-8 ear punches by weight was homogenized in Buffer A (50 mM HEPES pH 7.4, 100 mM NaCl) containing 1 tablet EDTA-free Protease Inhibitor (Thermo Fisher Scientific, Rockford, Ill.) per 10 mL, 1× Phosphatase Inhibitor Cocktail II (AG Scientific, San Diego, Calif.), and 1 mM PMSF (Sigma, St. Louis, Mo.). Homogenization was performed in Lysing Matrix D tubes (MP Biomedicals, Solon, Ohio), using the FastPrep-24 instrument (MP Biomedicals) at a speed setting of 6 for 4 cycles of 30 seconds, with cooling on ice in between cycles. The tubes were then centrifuged at 1,000×g for 10 min at 4° C. Supernatant was collected and briefly sonicated using the Microson probe sonicator at setting 3 (Misonix, Farmingdale, N.Y.) before centrifuging again at 10,000×g for 10 min at 4° C. The supernatant was ultracentrifuged at 100,000×g for 1 h at 4° C. in the Optima Max-E (Beckman Coulter, Indianapolis, Ind.) to separate soluble and membrane protein fractions. The soluble (supernatant) fraction was collected and protein concentrations determined using the Dc protein kit (Bio-Rad, Hercules, Calif.). Soluble ear proteins were analyzed in triplicate for cytokine response at a final protein concentration of 4 mg/ml using the Bio-Plex Pro Mouse Cytokine 23-Plex panel (Bio-Rad) as per manufacturer's protocols. Magnetic beads were read on the Bio-Plex MAGPIX multiplex reader instrument using the accompanying xPONENT 4.2 acquisition software (Bio-Rad Laboratories, Hercules, Calif.). Data were analyzed via the Bio-Plex Manager software v6.1 (Bio-Rad Laboratories). Response was calculated as a percentage of the cytokine concentrations measured in the right (DNFB) ears of vehicle 1 dosed (S regimen, i.e. dosed Day 0-5) mice (Table 18).
# BRD1 = biological target: T1, BRD1 (Homo sapiens, UniProt O95696); assay: Bromodomain binding assay: BRD1
# T1 construct: T7 phage strains displaying bromodomains were grown in parallel; made in house; host or cells: E. coli host derived from BL21, infected with T7 phage
# Protocol: T7 phage strains displaying bromodomains were grown in parallel in 24-well blocks in an E. coli host derived from the BL21 strain. E. coli were grown to log-phase and infected with T7 phage from a frozen stock (multiplicity of infection=0.4) and incubated with shaking at 32° C. until lysis (90-150 minutes). The lysates were centrifuged (5,000×g) and filtered (0.2 μm) to remove cell debris. […] The liganded beads were blocked with excess biotin and washed with blocking buffer (SeaBlock (Pierce), 1% BSA, 0.05 Tween 20, 1 mM DTT) to remove unbound ligand and to reduce non-specific phage binding. […] Test compounds (T62 and 46) were prepared as 1000× stocks in 100% DMSO and subsequently diluted 1:10 in monoethylene glycol (MEG) to create stocks at 100× the screening concentration (resulting stock solution is 10% DMSO/90% MEG). The compounds were then diluted directly into the assays such that the final concentration of DMSO and MEG were 0.1% and 0.9%, respectively. All reactions were performed in polystyrene 96-well plates in a final volume of 0.135 ml. […] The bromodomain concentration in the eluates was measured by qPCR. Compounds were assayed for binding activity against a panel of 40 bromodomain-containing proteins.
# T1 sequence (O95696 562-666 limits assumed, species assumed): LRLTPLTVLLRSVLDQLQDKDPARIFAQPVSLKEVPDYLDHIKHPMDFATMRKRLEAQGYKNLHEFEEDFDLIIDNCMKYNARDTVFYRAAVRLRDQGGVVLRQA
smiles,measurement,setting,value
"CCOc1cc(C(=O)N2CCC(N3CCCC3)CC2)ccc1Nc1cc2c(cn1)N(C)C(=O)c1ccccc1N2C [Compound 46, 3-(2-Ethoxy-4-(4-(pyrrolidin-1-yl)piperidine-1-carbonyl)phenylamino)-5,11-dimethyl-5H-benzo[e]pyrido[3,4-b][1,4]diazepin-10(11H)-one]",G-CSF: Mean % Cytokine Concentration in DNFB Treated Right Ears versus Vehicle 1-Dosed (S) Mice,"[1]; 25 mg/kg, regimen E",58%
same,GM-CSF: Mean % Cytokine Concentration in DNFB Treated Right Ears versus Vehicle 1-Dosed (S) Mice,"[1]; 25 mg/kg, regimen E",29%
same,IFN-γ: Mean % Cytokine Concentration in DNFB Treated Right Ears versus Vehicle 1-Dosed (S) Mice,"[1]; 25 mg/kg, regimen E",51%
same,IL-1α: Mean % Cytokine Concentration in DNFB Treated Right Ears versus Vehicle 1-Dosed (S) Mice,"[1]; 25 mg/kg, regimen E",128%
same,IL-1β: Mean % Cytokine Concentration in DNFB Treated Right Ears versus Vehicle 1-Dosed (S) Mice,"[1]; 25 mg/kg, regimen E",57%
same,IL-3: Mean % Cytokine Concentration in DNFB Treated Right Ears versus Vehicle 1-Dosed (S) Mice,"[1]; 25 mg/kg, regimen E",75%
same,IL-5: Mean % Cytokine Concentration in DNFB Treated Right Ears versus Vehicle 1-Dosed (S) Mice,"[1]; 25 mg/kg, regimen E",63%
same,IL-6: Mean % Cytokine Concentration in DNFB Treated Right Ears versus Vehicle 1-Dosed (S) Mice,"[1]; 25 mg/kg, regimen E",53%
same,IL-12 (p40): Mean % Cytokine Concentration in DNFB Treated Right Ears versus Vehicle 1-Dosed (S) Mice,"[1]; 25 mg/kg, regimen E",81%
same,IL-13: Mean % Cytokine Concentration in DNFB Treated Right Ears versus Vehicle 1-Dosed (S) Mice,"[1]; 25 mg/kg, regimen E",79%
same,IL-17A: Mean % Cytokine Concentration in DNFB Treated Right Ears versus Vehicle 1-Dosed (S) Mice,"[1]; 25 mg/kg, regimen E",53%
same,KC: Mean % Cytokine Concentration in DNFB Treated Right Ears versus Vehicle 1-Dosed (S) Mice,"[1]; 25 mg/kg, regimen E",30%
same,MCP-1: Mean % Cytokine Concentration in DNFB Treated Right Ears versus Vehicle 1-Dosed (S) Mice,"[1]; 25 mg/kg, regimen E",37%
same,MIP-1α: Mean % Cytokine Concentration in DNFB Treated Right Ears versus Vehicle 1-Dosed (S) Mice,"[1]; 25 mg/kg, regimen E",62%
same,MIP-1β: Mean % Cytokine Concentration in DNFB Treated Right Ears versus Vehicle 1-Dosed (S) Mice,"[1]; 25 mg/kg, regimen E",44%
same,RANTES: Mean % Cytokine Concentration in DNFB Treated Right Ears versus Vehicle 1-Dosed (S) Mice,"[1]; 25 mg/kg, regimen E",55%
same,TNF-α: Mean % Cytokine Concentration in DNFB Treated Right Ears versus Vehicle 1-Dosed (S) Mice,"[1]; 25 mg/kg, regimen E",67%
same,G-CSF: Mean % Cytokine Concentration in DNFB Treated Right Ears versus Vehicle 1-Dosed (S) Mice,"[1]; 60 mg/kg, regimen E",36%
same,GM-CSF: Mean % Cytokine Concentration in DNFB Treated Right Ears versus Vehicle 1-Dosed (S) Mice,"[1]; 60 mg/kg, regimen E",0%
same,IFN-γ: Mean % Cytokine Concentration in DNFB Treated Right Ears versus Vehicle 1-Dosed (S) Mice,"[1]; 60 mg/kg, regimen E",25%
same,IL-1α: Mean % Cytokine Concentration in DNFB Treated Right Ears versus Vehicle 1-Dosed (S) Mice,"[1]; 60 mg/kg, regimen E",120%
same,IL-1β: Mean % Cytokine Concentration in DNFB Treated Right Ears versus Vehicle 1-Dosed (S) Mice,"[1]; 60 mg/kg, regimen E",32%
same,IL-3: Mean % Cytokine Concentration in DNFB Treated Right Ears versus Vehicle 1-Dosed (S) Mice,"[1]; 60 mg/kg, regimen E",53%
same,IL-5: Mean % Cytokine Concentration in DNFB Treated Right Ears versus Vehicle 1-Dosed (S) Mice,"[1]; 60 mg/kg, regimen E",23%
same,IL-6: Mean % Cytokine Concentration in DNFB Treated Right Ears versus Vehicle 1-Dosed (S) Mice,"[1]; 60 mg/kg, regimen E",31%
same,IL-12 (p40): Mean % Cytokine Concentration in DNFB Treated Right Ears versus Vehicle 1-Dosed (S) Mice,"[1]; 60 mg/kg, regimen E",64%
same,IL-13: Mean % Cytokine Concentration in DNFB Treated Right Ears versus Vehicle 1-Dosed (S) Mice,"[1]; 60 mg/kg, regimen E",61%
same,IL-17A: Mean % Cytokine Concentration in DNFB Treated Right Ears versus Vehicle 1-Dosed (S) Mice,"[1]; 60 mg/kg, regimen E",42%
same,KC: Mean % Cytokine Concentration in DNFB Treated Right Ears versus Vehicle 1-Dosed (S) Mice,"[1]; 60 mg/kg, regimen E",21%
same,MCP-1: Mean % Cytokine Concentration in DNFB Treated Right Ears versus Vehicle 1-Dosed (S) Mice,"[1]; 60 mg/kg, regimen E",31%
same,MIP-1α: Mean % Cytokine Concentration in DNFB Treated Right Ears versus Vehicle 1-Dosed (S) Mice,"[1]; 60 mg/kg, regimen E",42%
same,MIP-1β: Mean % Cytokine Concentration in DNFB Treated Right Ears versus Vehicle 1-Dosed (S) Mice,"[1]; 60 mg/kg, regimen E",31%
same,RANTES: Mean % Cytokine Concentration in DNFB Treated Right Ears versus Vehicle 1-Dosed (S) Mice,"[1]; 60 mg/kg, regimen E",37%
same,TNF-α: Mean % Cytokine Concentration in DNFB Treated Right Ears versus Vehicle 1-Dosed (S) Mice,"[1]; 60 mg/kg, regimen E",48%
same,G-CSF: Mean % Cytokine Concentration in DNFB Treated Right Ears versus Vehicle 1-Dosed (S) Mice,"[1]; 60 mg/kg, regimen S",27%
same,GM-CSF: Mean % Cytokine Concentration in DNFB Treated Right Ears versus Vehicle 1-Dosed (S) Mice,"[1]; 60 mg/kg, regimen S",0%
same,IFN-γ: Mean % Cytokine Concentration in DNFB Treated Right Ears versus Vehicle 1-Dosed (S) Mice,"[1]; 60 mg/kg, regimen S",22%
same,IL-1α: Mean % Cytokine Concentration in DNFB Treated Right Ears versus Vehicle 1-Dosed (S) Mice,"[1]; 60 mg/kg, regimen S",88%
same,IL-1β: Mean % Cytokine Concentration in DNFB Treated Right Ears versus Vehicle 1-Dosed (S) Mice,"[1]; 60 mg/kg, regimen S",23%
same,IL-3: Mean % Cytokine Concentration in DNFB Treated Right Ears versus Vehicle 1-Dosed (S) Mice,"[1]; 60 mg/kg, regimen S",45%
same,IL-5: Mean % Cytokine Concentration in DNFB Treated Right Ears versus Vehicle 1-Dosed (S) Mice,"[1]; 60 mg/kg, regimen S",5%
same,IL-6: Mean % Cytokine Concentration in DNFB Treated Right Ears versus Vehicle 1-Dosed (S) Mice,"[1]; 60 mg/kg, regimen S",20%
same,IL-12 (p40): Mean % Cytokine Concentration in DNFB Treated Right Ears versus Vehicle 1-Dosed (S) Mice,"[1]; 60 mg/kg, regimen S",49%
same,IL-13: Mean % Cytokine Concentration in DNFB Treated Right Ears versus Vehicle 1-Dosed (S) Mice,"[1]; 60 mg/kg, regimen S",47%
same,IL-17A: Mean % Cytokine Concentration in DNFB Treated Right Ears versus Vehicle 1-Dosed (S) Mice,"[1]; 60 mg/kg, regimen S",38%
same,KC: Mean % Cytokine Concentration in DNFB Treated Right Ears versus Vehicle 1-Dosed (S) Mice,"[1]; 60 mg/kg, regimen S",19%
same,MCP-1: Mean % Cytokine Concentration in DNFB Treated Right Ears versus Vehicle 1-Dosed (S) Mice,"[1]; 60 mg/kg, regimen S",27%
same,MIP-1α: Mean % Cytokine Concentration in DNFB Treated Right Ears versus Vehicle 1-Dosed (S) Mice,"[1]; 60 mg/kg, regimen S",29%
same,MIP-1β: Mean % Cytokine Concentration in DNFB Treated Right Ears versus Vehicle 1-Dosed (S) Mice,"[1]; 60 mg/kg, regimen S",24%
same,RANTES: Mean % Cytokine Concentration in DNFB Treated Right Ears versus Vehicle 1-Dosed (S) Mice,"[1]; 60 mg/kg, regimen S",27%
same,TNF-α: Mean % Cytokine Concentration in DNFB Treated Right Ears versus Vehicle 1-Dosed (S) Mice,"[1]; 60 mg/kg, regimen S",39%
same,Kd,BRD1,> 20 µM
